We go through three compounds from paper PMC8042727, “Apoptosis-like cell death upon kinetoplastid induction by compounds isolated from the brown algae Dictyota spiralis” (Parasites & Vectors, 2021).

Where only a bound is given, the exact number is not on record here.

Holding throughout (format): cell-based
In assay [1] the test system is Leishmania amazonensis promastigotes. Nature of the assay: Anti-promastigotes assay (AlamarBlue, 72 h). The settings on record: for IC90: nonlinear regression of AlamarBlue curve, read-out: IC90 Leishmania amazonensis: promastigote; for IC50: 72 h, read-out: IC50: promastigote. The procedure: Experiments including in vitro activity assays of isolated compounds 1–3 were performed against the promastigote and amastigote stages of Leishmania amazonensis (MHOM/BR/77/LTB0016) and the epimastigote stage of Trypanosoma cruzi (Y strain). Promastigotes of L. amazonensis were cultured in Schneider’s medium (Sigma-Aldrich, St. Louis, MO, USA). Typanosoma cruzi strain Y was cultured in liver Infusion tryptose (LIT) medium.
The bioassay was performed using the AlamarBlue® method as previously described. Promastigotes of L. amazonensis were grown at 26 °C in RPMI 1640 modified medium (Gibco BRL Life Technologies Inc., Gaithersburg, MD, USA) and supplemented with 10% heat-inactivated fetal bovine serum (FBS). Cultures in the logarithmic phase were seeded in sterilized 96-well microtiter plates (Corning™, Corning, NY, USA) (10^6 parasites/ml) containing the samples dissolved in 1% DMSO at the suitable concentration to be tested in serial dilutions, and Leishmania medium (RPMI 1640) was used to reach a final volume of 200 μl per well; then 10% of AlamarBlue® was added to the entire plate. After an incubation of 72 h, the plate was checked visually using an inverted microscope, then analyzed using an Enspire multimode plate reader (PerkinElmer, Inc., Waltham, MA, USA) at excitation and emission wavelengths of 570 and 585 nm, respectively. Dose–response curves were plotted, and the concentration at which one half of the maximal inhibitory effect was obtained (IC50) was determined. The analyses were performed in triplicate.
(§1) Hoechst dye is a blue-fluorescent dye that stains condensed chromatin of apoptotic cells. To detect DNA condensation, the chromatin condensation/dead cell apoptosis kit was used (Invitrogen, Thermo Fisher Scientific, Waltham, MA, USA). Cells were incubated in the presence of the compounds to be tested at IC90. The IC90 values were determined using nonlinear regression of the AlamarBlue® curve. After 24 h of incubation, cells were harvested and resuspended in medium, following which 1 μl of Hoechst 33342 stock solution was added to parasites and incubated for 20 min. Results were analyzed by cell imaging using the Evos FL cell imaging system (Thermo Fisher Scientific). The experiments were repeated using a double-stain apoptosis detection kit (Hoechst 33342/PI; Thermo Fisher Scientific). […] A positive control was also tested: miltefosine (L. amazonensis) and benznidazole (T. cruzi).
(In general: Resazurin is reduced to fluorescent resorufin, in cell work by metabolically active cells.)

For assay [2] the test system is unchanged. Nature of the assay: Mitochondrial membrane potential (JC-1). Particulars: L. amazonensis, IC90, 24 h, relative to negative control. The protocol: Promastigotes of L. amazonensis (2 × 10^6 cells/ml) and epimastigotes (5 × 10^5cells/ml) of T. cruzi were incubated for 24 h in the presence of the compounds to be tested, at IC90 and 26 °C, following which the cells were centrifuged, resuspended and transferred to black bottom 96-well plate. A 10-μl aliquot of JC-1 reagent (JC-1 Mitochondrial Membrane Potential Assay Kit; Cayman Chemical, Ann Arbor, MI, USA) was added to each well and the plates were incubated for 30 min. The switch of fluorescence from red to green emitted by both forms of the dye (monomer and aggregate) was measured using the Enspire microplate reader (PerkinElmer) at excitation/emission wavelengths of 560/595 and 485/535 for red and green, respectively; the decrease of the ratio was calculated as the percentage relative to the negative control. Cells images were captured using the Evos cell imaging system (Thermo Fisher Scientific), which is a fully integrated digital inverted microscope, at a magnification of ×40 and ×100. Untreated cells are used as the negative control, and miltefosine and benznidazole were used as the positive control.
Disruption of mitochondrial functions induced by the incubation of L. amazonensis and T. cruzi with compounds 1–3 was evaluated using the mitochondrial membrane potential as a measure. JC-1 dye was used in this assay. In the case of normal mitochondrial membrane potential, the reactive dye will form aggregates that emit red fluorescence; a collapsed potential induces the monomeric form with green fluorescence. This parameter is expressed as the absolute red/green ratio of fluorescence. We considered the values of the negative controls to be the normal values, and therefore the collapse of mitochondrial membrane potential is expressed as a percentage (see Fig. 4a). This parameter is involved in energy storage and is an important indicator of cell health and viability.

In assay [3] the test system is Leishmania amazonensis. Put plainly: Oxidative stress / ROS accumulation (CellROX Deep Red). Particulars: L. amazonensis, IC90, 24 h. The procedure: The reagent used for this assay was a fluorogenic probe to measure cellular oxidative stress upon oxidation by reactive oxygen species (ROS). To perform the test, cells were incubated with the compounds to be tested, at IC90 for 24 h. The cells were centrifuged and resuspended in a volume of 50 μl, following which CellROX™ Deep Red oxidative stress reagent (Thermo-Fisher Scientific) was added to 96-well plates at […]. The plates were then incubated for 30 min at 37 °C. After incubation, the results were analyzed by cell imaging using the Evos cell imaging system. Cells treated with different compounds were compared with untreated control cells and the positive control. Fluorescence intensity was also measured using the Enspire multimode plate reader at excitation/emission wavelengths of 640/665 nm. Accumulation ROS at the cellular level is a good indicator of oxidative stress and is precursor to a chain reaction leading damage at the cellular level to proteins, nucleic acids, lipids, membrane and organelles. These cellular alterations can lead to activation of the cell death process. As such, ROS play an important role in cell signaling and the apoptosis pathway. An intracellular excess of ROS can be detected by the cell-permeable CellROX™ Deep Red reagent, which is a fluorogenic ROS sensor.

In assay [4] the test system is Leishmania amazonensis promastigotes. Put plainly: DNA condensation assay (Hoechst 33342 / PI). Particulars: L. amazonensis promastigotes, IC90, 24 h. The protocol:
as §1
DNA condensation is an important cellular event, providing evidence of apoptotic cell death. Hoechst dye is a blue-fluorescent dye that stains condensed chromatin. […] Also, using propidium iodine (PI), it is possible to distinguish dead cells, which stain red when PI penetrates the nucleus. The results of staining were evaluated using cell imaging. Different microscopy images are regrouped in Fig. 2 (for L. amazonensis) and Fig. 3 (for T. cruzi). […] A clear reduction in cell number is also evident.

For another assay, the system named is Trypanosoma cruzi. Nature of the assay: ATP level (CellTiter-Glo). The settings on record: T. cruzi, IC90, 24 h, relative to negative control. The procedure:
(§2) The CellTiter-Glo® luminescent cell viability assay (Promega, WI, USA) was used to quantify the adenosine triphosphate (ATP) concentration. Cells of the kinetoplastid strains (for both L. amazonensis [2 × 10^6 cells/ml] and T. cruzi [5 × 10^5cells/ml]) were incubated for 24 h with the compounds to be tested, at IC90 and 26 °C. After incubation, the cells were centrifuged and resuspended in 100 μl. To this volume, we added 100 μl of the reactive in white 96-well plates. After incubation, the luminescence signal was measured using the Enspire multimode plate reader. The decrease in ATP level was expressed as a percentage relative to the negative control. Miltefosine and benznidazole were tested as the positive control for L. amazonensis and T. cruzi, respectively.
(ATP-based viability assays read luminescence as a measure of living cells.)

For assay [5], the system named is Leishmania amazonensis. Nature of the assay: ATP level (CellTiter-Glo). Particulars: L. amazonensis, IC90, 24 h, relative to negative control. The procedure: as §2

For `C=C(C)[C@H]1CC[C@]2(C)C[C@@H]3O[C@@]3(C)CC/C=C(\C)CC[C@@H]12` [Compound 3, 3,4-epoxy-7,18-dolabelladiene], the concentration for an effect of 90% (IC90) (commonly the concentration needed for an effect of 90%) in assay [1] was found to be 74.9 µM. The “decrease in mitochondrial potential” value in assay [2] was > 80%. The “ROS accumulation (fluorescence vs negative control)” value in the assay on Leishmania amazonensis [3] is reported as “more remarkable”. Moreover, the “chromatin condensation / cell death stage (Hoechst/PI staining)” value in assay [4] is on record as “late apoptotic stage”. In the assay with Trypanosoma cruzi, the “decrease in ATP concentration” value was > 95%.
Consider `C=C1CC[C@@H]([C@@](C)(O)CCC=C(C)C)[C@@H](O)[C@@H]2C(C)=CC[C@@H]12` [Compound 2, dictyol E], for which, in assay [1], the concentration for half-maximal inhibition (IC50) (in general, the point on the concentration scale where inhibition reaches its midpoint) amounted to 18.9 ± 0.42 µM and the IC90 stood at 34.9 µM. In addition, in assay [2], the “decrease in mitochondrial potential” value turned out to be 40.7%. In addition, in the assay on Leishmania amazonensis [3], the “ROS accumulation (fluorescence vs negative control)” value is “slight increase in fluorescence but the increase was not significant”. For the same compound, the “chromatin condensation / cell death stage (Hoechst/PI staining)” value in assay [4] was “late apoptotic stage”. Further, the “loss of ATP concentration” value in the assay on Leishmania amazonensis [5] is 26.6%. Besides, in the assay on Trypanosoma cruzi, the “decrease in ATP concentration” value is recorded as > 95%.
For `CC(C)=CCC[C@](C)(O)[C@@H]1CC[C@@H](C)[C@@H]2CC=C(C)[C@H]2[C@@H]1O` [Compound 1, pachydictyol C], in assay [1], the concentration for half-maximal inhibition (IC50) came out at 18.9 ± 5.28 µM and the concentration for an effect of 90% (IC90) came out at 39.5 µM. The “decrease in mitochondrial potential” value in assay [2] worked out at 34.0%. Also, the “ROS accumulation (fluorescence vs negative control)” value in the assay on Leishmania amazonensis [3] was “more remarkable”. In addition, in the assay with Trypanosoma cruzi, the “decrease in ATP concentration” value is given as > 70%.
